Allergic skin reactions data for one compound are collected here from patent publication US8013011B2, “Treatment and prevention of benign pigmented moles (naevi) using artemisinine and the derivatives thereof” (EPIPHARM GmbH, priority 2005, dated 2011).

This series is described as follows: Skin tolerability observed during the topical treatments. Type of series: in vivo, human. The following applies: described topical treatments. An excerpt: A low-risk, non-invasive preventative or therapeutic treatment of acquired nevus cell nevi or of acquired or congenital nevus cell nevi (=birthmarks) with artemisinine and derivatives thereof (dihydroartemisinine, arteether, arthemeter, artesunate semisynthetic derivatives thereof and synthetically analogous compounds) represents enormous progress in the treatment of nevus cell nevi and could drastically reduce the risk of skin cancer. The invention is thus of great significance not only medically but also socioeconomically. […] It is also remarkable that healthy tissue is not damaged and the treatment is painless and simple.

Consider `C[C@H]1[C@H](OC(=O)CCC(=O)O)O[C@@H]2O[C@@]3(C)CC[C@H]4[C@H](C)CC[C@@H]1[C@@]24OO3` [artesunate], for which the allergic skin reactions entry is given as “No allergic skin reactions”.
